Results taken from patent US9834559B2, “4-Amino-6-phenyl-5,6-dihydroimidazo[1,5-a]pyrazin-3(2H)-one derivatives as inhibitors of beta-secretase (BACE)” (Janssen Pharmaceutica NV, priority 2013, dated 2017).

How the values were obtained:
[1] = system: brain levels of soluble Aβ40 and Aβ42; experiment: In vivo Aβ lowering, brain levels of soluble Aβ by MSD electrochemiluminescence; set-up: species or system mouse; conditions: untreated control = 100
Text: To determine whether acute administration of an Aβ lowering agent would reduce Aβ levels in vivo, non-transgenic rodents, e.g. mice or rats were used. Animals treated with the Aβ lowering agent were examined and compared to those untreated or treated with vehicle and brain levels of soluble Aβ42, Aβ40, Aβ38, and Aβ37 were quantitated by Meso Scale Discovery's (MSD) electrochemiluminescence detection technology. Treatment periods varied from hours (h) to days and were adjusted based on the results of the Aβ lowering once a time course of onset of effect could be established.
A typical protocol for measuring Aβ lowering in vivo is shown but it is only one of many variations that could be used to optimize the levels of detectable Aβ. For example, Aβ lowering compounds were formulated in 20% of Captisol® (a sulfo-butyl ether of β-cyclodextrin) in water or 20% hydroxypropyl β cyclodextrin. The Aβ lowering agents were administered as a single oral dose or by any acceptable route of administration to overnight fasted animals. After 4 h, the animals were sacrificed and Aβ levels were analysed.
Blood was collected by decapitation and exsanguinations in EDTA-treated collection tubes. Blood was centrifuged at 1900 g for 10 minutes (min) at 4° C. and the plasma recovered and flash frozen for later analysis. The brain was removed from the cranium and hindbrain. The cerebellum was removed and the left and right hemisphere were separated. The left hemisphere was stored at −18° C. for quantitative analysis of test compound levels. The right hemisphere was rinsed with phosphate-buffered saline (PBS) buffer and immediately frozen on dry ice and stored at −80° C. until homogenization for biochemical assays.
Mouse brains from non-transgenic animals were resuspended in 8 volumes of 0.4% DEA (diethylamine)/50 mM NaCl containing protease inhibitors (Roche-11873580001 or 04693159001) per gram of tissue, e.g. for 0.158 g brain, add 1.264 ml of 0.4% DEA. All samples were homogenized in the FastPrep-24 system (MP Biomedicals) using lysing matrix D (MPBio #6913-100) at 6 m/s for 20 seconds. Homogenates were centrifuged at 20800×g for 5 min and supernatants collected. Supernatants were centrifuged at 221.300×g for 50 min. The resulting high speed supernatants were then transferred to fresh eppendorf tubes. Nine parts of supernatant were neutralized with 1 part 0.5 M Tris-HCl pH 6.8 and used to quantify Aβ.
To quantify the amount of Aβ42, Aβ40, Aβ38, and Aβ37 in the soluble fraction of the brain homogenates, simultaneous specific detection of Aβ42, Aβ40, Aβ38, and Aβ37 was performed using MSD's electro-chemiluminescence multiplex detection technology. In this assay purified monoclonal antibodies specific for Abeta37 (JRD/Aβ37/3), Abeta38 (J&JPRD/Aβ38/5), Abeta40 (JRF/cAβ40/28), and Abeta42 (JRF/cAβ42/26) were coated on MSD 4-plex plates. Briefly, the standards (a dilution of synthetic Aβ42, Aβ40, Aβ38, and Aβ37) were prepared in 1.5 ml Eppendorf tube in Ultraculture, with final concentrations ranging from 10000 to 0.3 pg/m. The samples and standards were co-incubated with Sulfo-tag labelled JRF/rAβ/2 antibody to the N-terminus of Aβ as detector antibody. 50 μl of conjugate/sample or conjugate/standards mixtures were then added to the antibody-coated plate. The plate was allowed to incubate overnight at 4° C. in order to allow formation of the antibody-amyloid complex. Following this incubation and subsequent wash steps the assay was finished by adding read buffer according to the manufacturer's instructions (Meso Scale Discovery, Gaitherburg, Md.).
The SULFO-TAG emits light upon electrochemical stimulation initiated at the electrode. MSD Sector instrument SI6000 was used for signal read-out.
The results are shown in Table 7 (value for untreated animals as control (Ctrl) was set at 100): […]

[2] = target: T1, recombinant BACE2 protein (Homo sapiens, UniProt Q9Y5Z0); experiment: BACE2 biochemical FRET based assay; conditions: BACE2 0.4 μg/ml, 10 μM substrate, pH 5.0, 450 min; read-out: BACE2 Biochemical FRET based assay pIC50 (converted)
T1 sequence (Q9Y5Z0 63-518): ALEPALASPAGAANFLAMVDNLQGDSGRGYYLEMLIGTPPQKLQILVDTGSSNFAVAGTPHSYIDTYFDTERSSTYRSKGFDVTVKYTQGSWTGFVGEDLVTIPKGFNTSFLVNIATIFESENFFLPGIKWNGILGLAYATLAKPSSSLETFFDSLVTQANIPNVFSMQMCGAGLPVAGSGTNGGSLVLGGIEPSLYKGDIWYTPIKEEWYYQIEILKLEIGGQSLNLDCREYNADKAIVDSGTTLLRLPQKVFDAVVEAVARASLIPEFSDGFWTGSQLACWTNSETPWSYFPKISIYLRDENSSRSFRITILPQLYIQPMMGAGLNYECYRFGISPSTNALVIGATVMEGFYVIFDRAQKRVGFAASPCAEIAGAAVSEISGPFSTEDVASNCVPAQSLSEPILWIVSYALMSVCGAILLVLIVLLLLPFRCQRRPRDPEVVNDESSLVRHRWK
Text: This assay is a Fluorescence Resonance Energy Transfer Assay (FRET) based assay. The substrate for this assay contains the ‘Swedish’ Lys-Met/Asn-Leu mutation of the amyloid precursor protein (APP) beta-secretase cleavage site. This substrate also contains two fluorophores: (7-methoxycoumarin-4-yl) acetic acid (Mca) is a fluorescent donor with excitation wavelength at 320 nm and emission at 405 nm and 2,4-Dinitrophenyl (Dnp) is a proprietary quencher acceptor. […] Upon cleavage by the beta-secretase, the fluorophore Mca is separated from the quenching group Dnp, restoring the full fluorescence yield of the donor. The increase in fluorescence is linearly related to the rate of proteolysis.
Briefly in a 384-well format recombinant BACE2 protein in a final concentration of 0.4 μg/ml is incubated for 450 minutes at room temperature with 10 μM substrate in incubation buffer (50 mM Citrate buffer pH 5.0, 0.05% PEG, no DMSO) in the absence or presence of compound. Next the amount of proteolysis is directly measured by fluorescence measurement at T=0 and T=450 (excitation at 320 nm and emission at 405 nm). Results are expressed in RFU (Relative Fluorescence Units), as difference between T450 and T0.
A best-fit curve is fitted by a minimum sum of squares method to the plot of % Controlmin versus compound concentration. From this an IC50 value (inhibitory concentration causing 50% inhibition of activity) can be obtained. • LC=Median of the low control values • =Low control: Reaction without enzyme • HC=Median of the High control values • =High Control: Reaction with enzyme • % Effect=100−[(sample−LC)/(HC−LC)*100] • % Control=(sample/HC)*100 • % Controlmin=(sample−LC)/(HC−LC)*100

[3] = dose 10, s.c., 2 h after administration
[4] = dose 10, s.c., 4 h after administration
[5] = dose 10, p.o., 4 h after administration

SMILES	Aβ40 (% vs Ctrl)_Mean [1, 3] [% vs Ctrl]	Aβ42 (% vs Ctrl)_Mean [1, 3] [% vs Ctrl]	Aβ40 (% vs Ctrl)_Mean [1, 4] [% vs Ctrl]	Aβ42 (% vs Ctrl)_Mean [1, 4] [% vs Ctrl]	IC50 [2] [nM]	Aβ40 (% vs Ctrl)_Mean [1, 5] [% vs Ctrl]	Aβ42 (% vs Ctrl)_Mean [1, 5] [% vs Ctrl]
Cn1cc2n(c1=O)C[C@@](C)(c1cc(NC(=O)c3ccc(C#N)cn3)ccc1F)N=C2N [Compound 1, N-{3-[(6R)-8-Amino-2,6-dimethyl-3-oxo-2,3,5,6-tetrahydroimidazo[1,5-a]pyrazin-6-yl]-4-fluorophenyl}-5-cyanopyridine-2-carboxamide]	105	105	132	109	19.5		
Cc1nc(C(=O)Nc2ccc(F)c([C@]3(C)Cn4c(cn(C)c4=O)C(N)=N3)c2)co1 [Compound 3, N-{3-[(6R)-8-Amino-2,6-dimethyl-3-oxo-2,3,5,6-tetrahydroimidazo[1,5-a]pyrazin-6-yl]-4-fluorophenyl}-2-methyl-1,3-oxazole-4-carboxamide]					6.61	94	97
Cn1cc2n(c1=O)C[C@@](C)(c1cc(NC(=O)c3ccc(Cl)cn3)ccc1F)N=C2N [Compound 4, N-{3-[(6R)-8-amino-2,6-dimethyl-3-oxo-5H-imidazo[1,5-a]pyrazin-6-yl]-4-fluoro-phenyl}-5-chloro-pyridine-2-carboxamide]			121	125	4.37		
